Patent US7417156B2, “Orally active, antimalarial, anticancer, artemisinin-derived trioxane dimers” (Johns Hopkins University, priority 2002, dated 2008)

Tests used:
T-47D = experiment: NCI 60 cell line panel screen (SRB); type: cell-based, human
RPMI-8226 = experiment: NCI 60 cell line panel screen (SRB); type: cell-based, human
HT29 = experiment: NCI 60 cell line panel screen (SRB); type: cell-based, human
PC-3 = experiment: NCI 60 cell line panel screen (SRB); type: cell-based, human
MDA-MB231/ATCC = experiment: NCI 60 cell line panel screen (SRB); type: cell-based, human
MALME-3M = experiment: NCI 60 cell line panel screen (SRB); type: cell-based, human; settings: MALME-3M (Melanoma)
NCI-H322M = type: cell-based
BT-549 = experiment: NCI 60 cell line panel screen (SRB); type: cell-based, human
IGROVI = experiment: NCI 60 cell line panel screen (SRB); type: cell-based, human
OVCAR-3 = experiment: NCI 60 cell line panel screen (SRB); type: cell-based, human
NCI/ADR-RES = experiment: NCI 60 cell line panel screen (SRB); type: cell-based, human
OVCAR-8 = experiment: NCI 60 cell line panel screen (SRB); type: cell-based, human
MDA-MB-435 = experiment: NCI 60 cell line panel screen (SRB); type: cell-based, human; settings: Breast Cancer, MDA-MB-435
TK-10 = experiment: NCI 60 cell line panel screen (SRB); type: cell-based, human; settings: Renal Cancer, TK-10
60 cell line panel = type: cell-based
HOP-62 = experiment: NCI 60 cell line panel screen (SRB); type: cell-based, human
K-562 = experiment: NCI 60 cell line panel screen (SRB); type: cell-based, human
HCT-116 = experiment: NCI 60 cell line panel screen (SRB); type: cell-based, human
U251 = experiment: NCI 60 cell line panel screen (SRB); type: cell-based, human
M14 = experiment: NCI 60 cell line panel screen (SRB); type: cell-based, human
SF-539 = experiment: NCI 60 cell line panel screen (SRB); type: cell-based, human

Structure (SMILES): CC(=O)O[C@H]1C(=O)[C@@]2(C)[C@H]([C@H](OC(=O)c3ccccc3)[C@]3(O)C[C@H](OC(=O)[C@H](O)[C@@H](NC(=O)c4ccccc4)c4ccccc4)C(C)=C1C3(C)C)[C@]1(OC(C)=O)CO[C@@H]1C[C@@H]2O [Paclitaxel, paclitaxel, reference compound]
- Log10GI50 (T-47D; Breast Cancer, T-47D): −9.81
- Log10LC50 (T-47D; T-47D (Breast Cancer), LC50: PG=−50): >−4.00 log10M
- Log10GI50 (RPMI-8226; Leukemia, RPMI-8226): <−13.00
- Log10LC50 (RPMI-8226; RPMI-8226 (Leukemia), LC50: PG=−50): >−4.00 log10M
- Log10TGI50 (RPMI-8226; RPMI-8226 (Leukemia), TGI: PG=0): >−4.00 log10M
- Log10GI50 (HT29; Colon Cancer, HT29): <−13.00
- Log10LC50 (HT29; HT29 (Colon Cancer), LC50: PG=−50): −4.39 log10M
- Log10LC50 (PC-3; PC-3 (Prostate Cancer), LC50: PG=−50): >−4.00 log10M
- Log10TGI50 (PC-3; PC-3 (Prostate Cancer), TGI: PG=0): >−4.00 log10M
- Log10GI50 (PC-3; Prostate Cancer, PC-3): −10.85
- Log10GI50 (MDA-MB231/ATCC; Breast Cancer, MDA-MB231/ATCC): −8.54
- Log10TGI50 (MDA-MB231/ATCC; MDA-MB231/ATCC (Breast Cancer), TGI: PG=0): −4.84 log10M
- Log10LC50 (MALME-3M; LC50: PG=−50): −4.11 log10M
- Log10TGI50 (MALME-3M; TGI: PG=0): −4.46 log10M
- Log10LC50 (NCI-H322M; NCI-H322M (Non-Small Cell Lung Cancer), LC50: PG=−50): >−4.00 log10M
- Log10TGI50 (NCI-H322M; NCI-H322M (Non-Small Cell Lung Cancer), TGI: PG=0): −4.46 log10M
- Log10GI50 (NCI-H322M; Non-Small Cell Lung Cancer, NCI-H322M): −10.12
- Log10LC50 (BT-549; BT-549 (Breast Cancer), LC50: PG=−50): >−4.00 log10M
- Log10TGI50 (BT-549; BT-549 (Breast Cancer), TGI: PG=0): −6.32 log10M
- Log10GI50 (BT-549; Breast Cancer, BT-549): −9.31
- Log10LC50 (IGROVI; IGROVI (Ovarian Cancer), LC50: PG=−50): >−4.00 log10M
- Log10TGI50 (IGROVI; IGROVI (Ovarian Cancer), TGI: PG=0): −4.19 log10M
- Log10GI50 (IGROVI; Ovarian Cancer, IGROVI): −8.61
- Log10LC50 (OVCAR-3; OVCAR-3 (Ovarian Cancer), LC50: PG=−50): >−4.00 log10M
- Log10TGI50 (OVCAR-3; OVCAR-3 (Ovarian Cancer), TGI: PG=0): −4.55 log10M
- Log10GI50 (OVCAR-3; Ovarian Cancer, OVCAR-3): −10.40
- Log10GI50 (NCI/ADR-RES; Breast Cancer, NCI/ADR-RES): −8.48
- Log10LC50 (NCI/ADR-RES; NCI/ADR-RES (Breast Cancer), LC50: PG=−50): >−4.00 log10M
- Log10TGI50 (NCI/ADR-RES; NCI/ADR-RES (Breast Cancer), TGI: PG=0): >−4.00 log10M
- Log10LC50 (OVCAR-8; OVCAR-8 (Ovarian Cancer), LC50: PG=−50): >−4.00 log10M
- Log10GI50 (OVCAR-8; Ovarian Cancer, OVCAR-8): −10.75
- Log10GI50 (MDA-MB-435): <−13.00
- Log10GI50 (TK-10): −7.89
- Log10GI50 Delta (60 cell line panel): −10.15
- Log10GI50 Range (60 cell line panel): 8.00
- Log10LC50 Delta (60 cell line panel; 60 cell line panel): −4.06
- Log10LC50 Range (60 cell line panel; 60 cell line panel): .045
- Log10TGI50 Delta (60 cell line panel; 60 cell line panel): −4.54
- Log10TGI50 Range (60 cell line panel; 60 cell line panel): 7.20
- Log10LC50 (HOP-62; HOP-62 (Non-Small Cell Lung Cancer), LC50: PG=−50): −4.10 log10M
- Log10TGI50 (HOP-62; HOP-62 (Non-Small Cell Lung Cancer), TGI: PG=0): −4.80 log10M
- Log10GI50 (HOP-62; Non-Small Cell Lung Cancer, HOP-62): −9.67
- Log10LC50 (K-562; K-562 (Leukemia), LC50: PG=−50): >−4.00 log10M
- Log10TGI50 (K-562; K-562 (Leukemia), TGI: PG=0): >−4.00 log10M
- Log10GI50 (K-562; Leukemia, K-562): −10.83
- Log10GI50 (HCT-116; Colon Cancer, HCT-116): <−13.00
- Log10LC50 (HCT-116; HCT-116 (Colon Cancer), LC50: PG=−50): >−4.00 log10M
- Log10TGI50 (HCT-116; HCT-116 (Colon Cancer), TGI: PG=0): −4.82 log10M
- Log10GI50 (U251; CNS Cancer, U251): −11.29
- Log10LC50 (U251; U251 (CNS Cancer), LC50: PG=−50): −4.15 log10M
- Log10TGI50 (U251; U251 (CNS Cancer), TGI: PG=0): −4.32 log10M
- Log10LC50 (M14; M14 (Melanoma), LC50: PG=−50): −4.13 log10M
- Log10TGI50 (M14; M-14 (Melanoma), TGI: PG=0): −4.62 log10M
- Log10GI50 (M14; Melanoma, M14): −11.73
- Log10GI50 (SF-539; CNS Cancer, SF-539): −11.09
- Log10LC50 (SF-539; SF-539 (CNS Cancer), LC50: PG=−50): >−4.00 log10M
